{"source": "patent US8748481B2", "about": "“Method for treating gastrointestinal disorder” (Sucampo AG, priority 2004, dated 2014)", "origin": "cited, not measured here", "test_system": "patients with IBS with constipation / chronic idiopathic constipation", "details": "cited from earlier work", "note": "Structures can show the parent of a compound that is named as a salt.", "data": [{"smiles": "[H]/N=C(/NCCCCC)N/N=C/c1c[nH]c2ccc(OC)cc12", "note": "[Zelnorm®, tegaserod maleate]", "values": [{"measurement": "Return of symptoms after stopping", "setting": "after patients stop taking the drug", "result": "may return within 1 or 2 weeks"}, {"measurement": "Treatment effect over placebo in patients aged 65 years and older", "setting": "subgroup analyses", "result": "no significant treatment effect"}, {"measurement": "Response rates vs. placebo in males", "setting": "two randomized, placebo-controlled, double-blind studies enrolling 288 males", "result": "no significant differences"}]}]}
